Values quoted from earlier work, collected in patent US9314429B2, “Rapidly dispersible dosage form of oxcarbazepine” (APRECIA PHARMACEUTICALS COMPANY, priority 2013, dated 2016).

## NC(=O)N1c2ccccc2CC(=O)c2ccccc21 [OXC, 10,11-Dihydro-10-oxo-5H-dibenz[b,f]azepine-5-carboxamide]
  water solubility: poorly water soluble
